Experimental data reported in patent publication US20080107761A1, “Composition and Method For Promoting the Production of and/or Enhancing the Activity of Fibulin-5” (Shiseido Company, Ltd., priority 2004, published 2008).

System: fibulin-5 mRNA
Assay: Expression and determination of fibulin-5 mRNA in human fibroblasts by quantitative PCR
Assay type: cell-based
Conditions: for Effect on fibulin-5 production in human fibroblasts (% of the control) Mean ± SD: 24 hours culture, relative to no-addition control; for Effect of promoting fibulin-5 production (in words): summary of Table 1
Experimental: Adhering cells were suspended by a trypsin-ethylenediaminetetraacetic acid (EDTA) treatment and then filtered to obtain a homogeneous cell suspension. Cells were collected by centrifugation and suspended at 0.2x10^6 cells/ml. Three ml each of the cell suspension was inoculated to a 6-well plate. After the cells adhered, the medium was replaced with a 0.25% by weight FBS-containing DMEM. After culturing at 37° C for 24 hours, the medium was replaced with 0.25% by weight FBS-containing DMEM containing either of a few dozen of pharmaceutical agents. After culturing for further 24 hours, the culture supernatant was removed, and mRNA was recovered by the ABI PRISM 6100 Nucleic Acid PrepStation Kit (Applied Biosystems). […] The primers and probes used in this Example are as follows: The determination of mRNA expression was conducted in three groups, and was expressed in percentage relative to the mean of the no-addition control group.

Row | SMILES | Effect on fibulin-5 production in human fibroblasts (% of the control) Mean ± SD (25 μg/ml (0.0025% by weight)) | Effect on fibulin-5 production in human fibroblasts (% of the control) Mean ± SD (250 μg/ml (0.025% by weight)) | Effect of promoting fibulin-5 production (in words)
1 | O=C(O)[C@@H]1C[C@@H](O)CN1 [L-hydroxyproline, (2S,4R)-4-hydroxypyrrolidine-2-carboxylic acid] | 110.1 ± 11.0 % of the control | 147.3 ± 8.9 % of the control | significant effect of promoting fibulin-5 production
2 | O=P(O)(O)O[C@H]1[C@H](OP(=O)(O)O)[C@@H](OP(=O)(O)O)[C@H](OP(=O)(O)O)[C@@H](OP(=O)(O)O)[C@H]1OP(=O)(O)O [phytic acid, myo-inositol hexakis- phosphate] | 93.0 ± 24.4 % of the control | 126.1 ± 16.4 % of the control | significant effect of promoting fibulin-5 production
